Experimental data taken from PMC11243149, “Assessing the Effects of Thiazole-Carboxamide Derivatives on the Biophysical Properties of AMPA Receptor Complexes as a Potential Neuroprotective Agent” (Molecules, 2024).
Like-named read-outs stand apart in the source and are kept apart here.

Target: T1, GluA1/2 (Homo sapiens, UniProt P42261+P42262)
T1 construct: expressed in transfected cells; host or cells: HEK293T
Test: Whole-cell patch-clamp recordings of heteromeric GluA1/2 AMPAR in transfected HEK293T cells
Assay type: cell-based
Conditions: for Amplitude (glutamate plus TC compound): 10 mM glutamate + TC compound (12 µM optimal concentration), HEK293T, -60 mV, pH 7.4, 22 °C, mean ± SEM; for Amplitude (glutamate plus TC compound) / Amplitude, applying glutamate alone after TC compound: n = 10; for Amplitude, applying glutamate alone after TC compound: 10 mM glutamate alone after 20 s wash following the TC compound; for A/AI: ratio of current with glutamate alone (A) to inhibited current after TC compound (AI); for t deact: weighted tau of deactivation, 10 mM glutamate for 1 ms, glutamate alone 2.5±0.3; for t deact / t des: with TC compound; for t des: weighted tau of desensitization, 10 mM glutamate 500 ms, glutamate alone 5.2±0.5
Method: The effect of five TC compounds on whole-cell currents of four AMPAR subunits (GluA1, GluA1/2, GluA2, and GluA2/3) was investigated using transfected HEK293T cells. Each compound was applied separately to each subunit, with experiments conducted on 8–10 cells per condition to ensure reproducibility. […] At a glutamate concentration of 10 mM and a 500 ms protocol, approximately 95% of AMPAR channels were open. The A/AI ratio was calculated to compare the results, where A represents normalized current readings and AI indicates the inhibited current following TC compound exposure. […] Following closely, TC-1 inhibited the tested subunits by 5-fold.
The IC50 values were examined using GraphPad Prism software 9.5.0.730 (x64) (Table S6), which confirmed these findings. The IC50 values of TC substances were calculated by standardizing the peak current amplitudes using data obtained from 8–10 cells. Following a 500 ms exposure to the compounds, the cells were rinsed with glutamate for 20 s. Next, a solution containing just glutamate at a concentration of 10 mM was administered, and the resulting immediate induced electrical current was measured and documented (Figure 3).
In addition, an evaluation was conducted on the deactivation rates (τw deact) of all the examined chemicals to investigate their impact on the kinetics of deactivation. The chemicals were assessed for their effect on the deactivation kinetics of AMPAR subunits by briefly administering 10 mM glutamate for 1 ms to begin currents. This experimental setup allowed for the observation of τw deact under controlled conditions. […] TC-5 induced an approximately 2-fold increase in τw deact across all four tested subunits. […] These findings highlight the differential impact of TC compounds on deactivation kinetics across AMPAR subunits, shedding light on their potential neuroprotective mechanisms.
The flip isoform was uniformly employed across all AMPAR subunits in this study. These subunits were subcloned into the pRK vector and expressed in Human Embryonic kidney cells sourced (Sigma, München, Germany). HEK293T cells were grown in Dulbecco Modified Eagle Medium (DMEM) (Sigma, München, Germany) containing 10% FBS (fetal bovine serum), 0.1 mg/mL streptomycin, and 1 mM sodium pyruvate (Biological Industries; Beit-Haemek, Israel). HEK293T cells were incubated at 37 °C and 5% CO2 was supplemented to the medium. It was subcultured twice a week until cells reached pass #20. The transfection reagent used was either jetPRIME (Polyplus: New York, NY, USA) or Lipofectamine 2000 (Invitrogen; San Diego, CA, USA). Cells were kept for 36 h. after transfection in 12-well plates. Then, they were replated on coverslips coated with Laminin (1 mg/mL; Sigma, Germany) for electrophysiology recordings. Cells were then seeded in Petri dishes in DMEM supplemented with 10% fetal calf serum and antibiotics and maintained in a humidified incubator at 37 °C and 5% CO2. Highly fluorescent cells were identified and selected for recording post-transfection.
HEK293T cells were recorded for 36–48 h, at a temperature of 22 °C, with a membrane potential of −60 mV. HEK293T cells were recorded 36–48 h after transfection using IPA (Integrated Patch Amplifier) via the […], at a temperature of 22 °C, with a membrane potential of −60 mV. SutterPatch Software v. 1.1.1 (Sutter Instruments, Novato, CA, USA) was used to digitize membrane currents for a short period. The sampling frequency was set to 10 kHz, and the low-pass filter was set to 2 kHz. Borosilicate glass was used to fabricate the patch electrodes with a resistance of 2–4 MΩ. The extracellular solution contained the following (values are in mM): 150 NaCl, 2.8 KCl, 0.5 MgCl2, 2 CaCl2, and 10 HEPES, adjusted to pH 7.4 with NaOH. The pipette solution contained the following (values are in mM): 110 CsF, 30 CsCl, 4 NaCl, 0.5 CaCl2, 10 […], and 10 HEPES, adjusted to pH 7.2 with CsOH. […]

[1] = Table S6, peak current amplitudes, 8-10 cells, GraphPad Prism fit, read-out: IC50
[2] = Table S6, read-out: Log IC50 (converted)

T1 sequence (P42261 19-906 isoform P42261-2 limits assumed): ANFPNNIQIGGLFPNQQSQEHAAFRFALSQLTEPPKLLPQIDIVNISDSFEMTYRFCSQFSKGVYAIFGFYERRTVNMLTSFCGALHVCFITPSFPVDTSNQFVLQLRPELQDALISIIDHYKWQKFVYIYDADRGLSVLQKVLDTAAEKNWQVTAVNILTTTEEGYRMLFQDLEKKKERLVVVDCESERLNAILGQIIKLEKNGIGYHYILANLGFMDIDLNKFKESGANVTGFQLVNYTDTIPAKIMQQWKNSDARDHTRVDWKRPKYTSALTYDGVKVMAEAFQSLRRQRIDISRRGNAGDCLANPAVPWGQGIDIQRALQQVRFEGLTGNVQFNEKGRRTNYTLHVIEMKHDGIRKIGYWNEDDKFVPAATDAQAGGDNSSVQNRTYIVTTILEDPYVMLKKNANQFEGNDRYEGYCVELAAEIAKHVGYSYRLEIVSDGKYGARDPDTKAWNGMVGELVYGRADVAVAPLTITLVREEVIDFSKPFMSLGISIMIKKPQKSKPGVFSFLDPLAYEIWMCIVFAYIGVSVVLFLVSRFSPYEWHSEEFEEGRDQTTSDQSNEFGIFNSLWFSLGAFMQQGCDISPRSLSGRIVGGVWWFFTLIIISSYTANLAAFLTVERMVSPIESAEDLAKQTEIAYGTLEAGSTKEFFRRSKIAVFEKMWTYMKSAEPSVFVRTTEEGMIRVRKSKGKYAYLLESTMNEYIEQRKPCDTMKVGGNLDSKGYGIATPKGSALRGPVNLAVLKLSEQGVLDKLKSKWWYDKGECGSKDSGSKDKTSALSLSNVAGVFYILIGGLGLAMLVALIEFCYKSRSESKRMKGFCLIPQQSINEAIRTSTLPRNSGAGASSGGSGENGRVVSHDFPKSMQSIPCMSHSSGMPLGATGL
T1 sequence (P42262 25-883 isoform P42262-2 limits assumed): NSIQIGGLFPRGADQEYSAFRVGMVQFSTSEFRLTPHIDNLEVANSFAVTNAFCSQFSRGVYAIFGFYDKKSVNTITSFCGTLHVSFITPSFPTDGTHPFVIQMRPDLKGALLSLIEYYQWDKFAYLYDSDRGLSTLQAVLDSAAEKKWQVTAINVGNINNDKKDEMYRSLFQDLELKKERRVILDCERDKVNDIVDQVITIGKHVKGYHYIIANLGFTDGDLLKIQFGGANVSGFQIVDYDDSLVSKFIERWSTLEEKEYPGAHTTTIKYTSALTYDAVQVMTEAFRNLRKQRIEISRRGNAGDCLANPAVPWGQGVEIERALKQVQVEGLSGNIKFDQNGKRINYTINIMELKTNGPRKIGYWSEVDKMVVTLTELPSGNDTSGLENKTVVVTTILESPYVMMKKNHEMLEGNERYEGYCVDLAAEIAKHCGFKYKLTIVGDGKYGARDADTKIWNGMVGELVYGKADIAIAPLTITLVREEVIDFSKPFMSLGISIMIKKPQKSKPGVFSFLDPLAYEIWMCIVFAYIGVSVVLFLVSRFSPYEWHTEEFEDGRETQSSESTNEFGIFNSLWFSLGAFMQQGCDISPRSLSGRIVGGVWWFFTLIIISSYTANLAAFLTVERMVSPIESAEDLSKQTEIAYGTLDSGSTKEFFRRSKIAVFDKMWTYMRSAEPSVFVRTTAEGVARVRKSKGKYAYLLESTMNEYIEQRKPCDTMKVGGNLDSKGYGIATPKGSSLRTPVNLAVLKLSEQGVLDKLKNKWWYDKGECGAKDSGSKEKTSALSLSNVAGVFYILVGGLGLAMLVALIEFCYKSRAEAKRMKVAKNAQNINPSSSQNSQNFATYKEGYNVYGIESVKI

Structure (SMILES)	decrease in τw des	Amplitude (glutamate plus TC compound) [pA]	Amplitude, applying glutamate alone after TC compound [pA]	IC50 [1] [µM]	IC50 [2] [µM]	A/AI	t deact [ms]	t des [ms]
COc1ccc(-c2nc(C(=O)Nc3ccc(OC)c(OC)c3)cs2)cc1 [TC-1]	around 1.3 fold	126±12	604±62	3.36	3.39	4.98±0.06	5.8 ± 0.4	3.9 ± 0.4
COc1ccc(-c2nc(C(=O)Nc3ccccc3)cs2)cc1 [TC-3]	–	197±24	565±72	5.64	5.62	3.09±0.02	3.3 ± 0.3	4.2 ± 0.3
COc1ccc(-c2nc(C(=O)Nc3ccc(C(C)(C)C)cc3)cs2)cc1 [TC-4]	–	221±26	609±77	5.78	5.75	2.86±0.02	3.2 ± 0.4	4.4 ± 0.3
